20 compounds from patent publication US12227520B2 (priority 2019, dated 2025) can be followed below.

One series deals with HIV-1 (IIIB). Put plainly: Antiviral assay in MT-4 cells (HIV MT-4 antiviral assay). It is filed as cell-based. Particulars: Human immunodeficiency virus 1, IIIB, MT4, 120 h, HIV-1 (IIIB) in MT-4 cells, 5 days incubation; read-out: EC50. As for the experimental part:
Compounds were tested in a high-throughput 384-well assay format for their ability to inhibit the replication of HIV-1 (IIIB) in MT-4 cells. Compounds were serially diluted (1:3) in DMSO on 384-well polypropylene plates and further diluted 200-fold into complete RPMI media (10% FBS, 1% P/S) using the Biotek Micro Flow and Labcyte ECHO acoustic dispenser. Each plate contained up to 8 test compounds, with negative (No Drug Control) and 5 μM AZT positive controls. MT-4 cells were pre-infected with 10 μL of either RPMI (mock-infected) or a fresh 1:250 dilution of HIV-1 IIIB concentrated virus stock. Infected and uninfected MT-4 cells were further diluted in complete RPMI media and added to each plate using a Micro Flow dispenser. After 5 days incubation in a humidified and temperature controlled incubator (37° C.), Cell Titer Glo (Promega) was added to the assay plates and chemiluminescence read using an Envision plate-reader.

Series [1] in a line: Cytotoxicity assay in MT-4 cells. It is filed as cell-based, human. Conditions: human, uninfected MT-4 cells, 5 days incubation; read-out: CC50. As for the experimental part: Each plate contained up to 8 test compounds, with negative (No Drug Control) and 5 μM AZT positive controls. MT-4 cells were pre-infected with 10 μL of either RPMI (mock-infected) or a fresh 1:250 dilution of HIV-1 IIIB concentrated virus stock. Infected and uninfected MT-4 cells were further diluted in complete RPMI media and added to each plate using a Micro Flow dispenser. After 5 days incubation in a humidified and temperature controlled incubator (37° C.), Cell Titer Glo (Promega) was added to the assay plates and chemiluminescence read using an Envision plate-reader. […] Assays were performed as above except uninfected MT-4 cells were added to each well containing test compound. In addition, 10 μM puromycin was added to the last column of each assay plate to assess a base level of cytotoxicity.

The next series concerns pLai RLuc reporter virus. The series can be described thus: microbe, parasite or virus in culture. Format: cell-based, HIV. Conditions: Human immunodeficiency virus 1, 72 h. As to the method:
To quantify the amount of protein binding to human serum, compounds were serially diluted (1:3) in DMSO and acoustically transferred onto 384-well assay plates via a Labcyte ECHO robot. Each plate contained up to 8 test compounds, including negative and positive controls, (DMSO, 5 μM AZT respectively). Assay plates were prepared in duplicate, and tested in either CCM (cell culture media) or HS/CCM (human serum/cell culture media). MT-4 cells were first pre-infected with pLai RLuc reporter virus for 2 h at 37° C., then further diluted in either CCM (RPMI media, 10% FBS, 1% P/S) or HS/CCM (RPMI media, 10% FBS, 50% HS, 1% P/S), and subsequently added to each plate using a Biotek Micro Flow dispenser. After a 72-h incubation in a humidified and temperature controlled incubator (37° C.), Renilla Glo (Promega) was added to all assay plates and chemiluminescence read using an Envision plate-reader. […] To determine the amount of protein binding, EC50 fold shifts (or EC50 shifts) were calculated by dividing EC50 (HS/CCM)/EC50 (CCM).

The structures appear in SMILES notation. pEC50: −log10 of the molar value. Read-outs that look alike come from different tables or passages of the source.

For the compound `CO[C@@H]1CCN2C[C@H](C1)n1cc(C(=O)NCc3c(F)cc(F)cc3F)c(=O)c(O)c1C2=O` [Example 103-1, (5R,7S)-12-hydroxy-5-methoxy-1,11-dioxo-N-(2,4,6-trifluorobenzyl)-1,4,5,6,7,11-hexahydro-3H-2,7-methanopyrido[1,2-a][1,4]diazonine-10-carboxamide], the pEC50 in the series with HIV-1 (IIIB) is 8.05. Besides, the cytotoxic concentration (CC50) (usually the concentration at which the toxic effect on the cells reaches its halfway point) at 5 days in series [1] is greater than 50000 nM.

Regarding `O=C(NCc1ccc(F)cc1F)c1cn2c(c(O)c1=O)C(=O)N1CCNCC2C1` (stereo not shown) [Example 30, N-(2,4-difluorobenzyl)-12-hydroxy-1,11-dioxo-1,4,5,6,7,11-hexahydro-3H-2,7-methanopyrido[1,2-a][1,4,7]triazonine-10-carboxamide], the pEC50 in the series on HIV-1 (IIIB) is 8.16. Besides, the half-maximal cytotoxic concentration (CC50) at 5 days in series [1] came out at 1660 nM.

Turning to `O=C(NCc1c(F)cc(F)cc1F)c1cn2c(c(O)c1=O)C(=O)N1C[C@@H]2CCc2cccc(F)c21` [Example 46-1, (12S)-4-fluoro-7-hydroxy-6,8-dioxo-N-(2,4,6-trifluorobenzyl)-6,8,13,14-tetrahydro-12H-5,12-methanobenzo[e]pyrido[1,2-a][1,4]diazonine-9-carboxamide], the pEC50 with HIV-1 (IIIB) is 7.04. Moreover, the CC50 at 5 days in series [1] was 9240 nM.

Take `O=C(NCc1c(F)cc(F)cc1F)c1cn2c(c(O)c1=O)C(=O)N1CCSC[C@@H]2C1` [Example 155-1, (7S)-12-hydroxy-1,11-dioxo-N-(2,4,6-trifluorobenzyl)-1,3,4,6,7,11-hexahydro-2,7-methanopyrido[1,2-d][1,4,7]thiadiazonine-10-carboxamide]: the pEC50 in the series on HIV-1 (IIIB) was 8.52. The CC50 at 5 days in series [1] is 39500 nM.

With `O=C(NCc1c(F)cc(F)cc1F)c1cn2c(c(O)c1=O)C(=O)N1C[C@@H]2CCc2cc(Cl)ccc21` [Example 48-1, (12S)-2-chloro-7-hydroxy-6,8-dioxo-N-(2,4,6-trifluorobenzyl)-6,8,13,14-tetrahydro-12H-5,12-methanobenzo[e]pyrido[1,2-a][1,4]diazonine-9-carboxamide], in the series on HIV-1 (IIIB), the pEC50 was less than 7.47. Moreover, in series [1], the 50% cytotoxic concentration (CC50) at 5 days was greater than 13800 nM.

In the case of `COC1CCCN2C[C@H]1n1cc(C(=O)NCc3c(F)cc(F)cc3F)c(=O)c(O)c1C2=O` (stereo partly drawn) [Example 99-2, (7R)-12-hydroxy-6-methoxy-1,11-dioxo-N-(2,4,6-trifluorobenzyl)-1,4,5,6,7,11-hexahydro-3H-2,7-methanopyrido[1,2-a][1,4]diazonine-10-carboxamide], in the series with HIV-1 (IIIB), the pEC50 is 8.52. In series [1], the CC50 at 5 days was greater than 23400 nM.

As for `CCC1CCCN2CC1n1cc(C(=O)NCc3ccc(F)cc3F)c(=O)c(O)c1C2=O` (stereo not shown) [Example 106, N-(2,4-difluorobenzyl)-6-ethyl-12-hydroxy-1,11-dioxo-1,4,5,6,7,11-hexahydro-3H-2,7-methanopyrido[1,2-a][1,4]diazonine-10-carboxamide], the pEC50 in the series with HIV-1 (IIIB) is 8.63. Further, in series [1], the cytotoxic concentration (CC50) at 5 days is 6840 nM.

`O=C(NCc1ccccc1)c1cn2c(c(O)c1=O)C(=O)N1CCCC[C@H]2C1` [Example 167, (7S)—N-benzyl-12-hydroxy-1,11-dioxo-1,4,5,6,7,11-hexahydro-3H-2,7-methanopyrido[1,2-a][1,4]diazonine-10-carboxamide]: the pEC50 in the series on HIV-1 (IIIB) is 8.49. Besides, in series [1], the CC50 at 5 days was found to be 18700 nM.

Take `CC1CCN2C[C@H](C1)n1cc(C(=O)NCc3c(F)cc(F)cc3F)c(=O)c(O)c1C2=O` (stereo partly drawn) [Example 124, (7S)-12-hydroxy-5-methyl-1,11-dioxo-N-(2,4,6-trifluorobenzyl)-1,4,5,6,7,11-hexahydro-3H-2,7-methanopyrido[1,2-a][1,4]diazonine-10-carboxamide]: the pEC50 with HIV-1 (IIIB) was 8.55. The CC50 at 5 days in series [1] turned out to be 15400 nM.

As for `O=C(NCc1ccc(F)cc1F)c1cn2c(c(O)c1=O)C(=O)N1CCOC[C@@H]2C1` [Example 28, (7S)—N-(2,4-difluorobenzyl)-12-hydroxy-1,11-dioxo-1,3,4,6,7,11-hexahydro-2,7-methanopyrido[1,2-d][1,4,7]oxadiazonine-10-carboxamide], the pEC50 with HIV-1 (IIIB) is 7.87. In addition, the CC50 at 5 days in series [1] was greater than 50000 nM.

Regarding `O=C(NCc1ccc(F)cc1F)c1cn2c(c(O)c1=O)C(=O)N1CCCC(O)(C(F)F)[C@H]2C1` (stereo partly drawn) [Example 76, (7R)—N-(2,4-difluorobenzyl)-6-(difluoromethyl)-6,12-dihydroxy-1,11-dioxo-1,4,5,6,7,11-hexahydro-3H-2,7-methanopyrido[1,2-a][1,4]diazonine-10-carboxamide], in the series with HIV-1 (IIIB), the pEC50 is 8.10. The 50% cytotoxic concentration (CC50) at 5 days in series [1] was found to be 23700 nM.

`Cc1noc2c1C[C@H]1CN(C2)C(=O)c2c(O)c(=O)c(C(=O)NCc3c(F)cc(F)cc3F)cn21` (single isomer, unassigned) [Example 135-2]: in the series with HIV-1 (IIIB), the pEC50 was 8.32. In series [1], the CC50 at 5 days was greater than 50000 nM.

As for `C[C@H]1CCCN2C[C@H]1n1cc(C(=O)NCc3c(F)cc(F)cc3F)c(=O)c(O)c1C2=O` [Example 170, (6S,7S)-12-hydroxy-6-methyl-1,11-dioxo-N-(2,4,6-trifluorobenzyl)-1,4,5,6,7,11-hexahydro-3H-2,7-methanopyrido[1,2-a][1,4]diazonine-10-carboxamide], the pEC50 in the series on HIV-1 (IIIB) is 8.92. In series [1], the CC50 at 5 days came to 9860 nM.

As to `CO[C@H]1CC[C@H]2CN(C1)C(=O)c1c(O)c(=O)c(C(=O)NCc3c(F)cc(F)cc3F)cn12` [Example 91, (4S,7S)-12-hydroxy-4-methoxy-1,11-dioxo-N-(2,4,6-trifluorobenzyl)-1,4,5,6,7,11-hexahydro-3H-2,7-methanopyrido[1,2-a][1,4]diazonine-10-carboxamide], the pEC50 in the series on HIV-1 (IIIB) is 7.63. Besides, the CC50 at 5 days in series [1] was greater than 50000 nM.

With `O=C(NCc1cccc(Cl)c1F)c1cn2c(c(O)c1=O)C(=O)N1Cc3cc(F)c(F)cc3C[C@H]2C1` [Example 143-2, (6S)—N-(3-chloro-2-fluorobenzyl)-9,10-difluoro-1-hydroxy-2,14-dioxo-2,7,12,14-tetrahydro-6H-6,13-methanobenzo[f]pyrido[1,2-a][1,4]diazonine-3-carboxamide], the pEC50 with HIV-1 (IIIB) was 7.89. Besides, the cytotoxic concentration (CC50) at 5 days in series [1] is greater than 50000 nM.

Consider `Cn1cc2c(n1)C[C@H]1CN(C2)C(=O)c2c(O)c(=O)c(C(=O)NCc3c(F)cc(F)cc3F)cn21` [Example 87-1, (12S)-7-hydroxy-2-methyl-6,8-dioxo-N-(2,4,6-trifluorobenzyl)-2,4,6,8,12,13-hexahydro-5,12-methanopyrazolo[4,3-f]pyrido[1,2-a][1,4]diazonine-9-carboxamide], for which the pEC50 with HIV-1 (IIIB) is 8.22. Also, the CC50 at 5 days in series [1] is greater than 50000 nM.

Consider `O=C(NCc1ccc(F)cc1F)c1cn2c(c(O)c1=O)C(=O)N1CCc3cc(F)c(F)cc3[C@@H]2C1` (single isomer, unassigned) [Example 111-2], for which the pEC50 with HIV-1 (IIIB) was 7.25. For the same compound, the CC50 at 5 days in series [1] is 9940 nM.

With `O=C(NCc1c(F)cc(F)cc1F)c1cn2c(c(O)c1=O)C(=O)N1C[C@H]2CCc2c(Cl)cccc21` [Example 45-2, (12R)-1-chloro-7-hydroxy-6,8-dioxo-N-(2,4,6-trifluorobenzyl)-6,8,13,14-tetrahydro-12H-5,12-methanobenzo[e]pyrido[1,2-a][1,4]diazonine-9-carboxamide], the pEC50 with HIV-1 (IIIB) is 7.52. Moreover, the CC50 at 5 days in series [1] was 8890 nM.

Take `O=C(NCc1ccc(F)cc1F)c1cn2c(c(O)c1=O)C(=O)N1CCCC2CC1` (stereo not shown) [Example 23, N-(2,4-difluorobenzyl)-11-hydroxy-1,10-dioxo-1,3,4,5,6,10-hexahydro-2,6-ethanopyrido[1,2-a][1,4]diazocine-9-carboxamide]: in the series on HIV-1 (IIIB), the pEC50 is 7.22. Also, the 50% cytotoxic concentration (CC50) at 5 days in series [1] amounted to 12000 nM.

Turning to `O=C(NCc1c(F)cc(F)cc1F)c1cn2c(c(O)c1=O)C(=O)N1CC=C(F)C[C@H]2C1` [Example 133, (7S)-5-fluoro-12-hydroxy-1,11-dioxo-N-(2,4,6-trifluorobenzyl)-1,6,7,11-tetrahydro-3H-2,7-methanopyrido[1,2-a][1,4]diazonine-10-carboxamide], the pEC50 was 8.78 in the series with pLai RLuc reporter virus (read-out: Antiviral Serum Shift RLuc 50% HS, HS/CCM (RPMI media, 10% FBS, 50% HS, 1% P/S), 72-h incubation) and 9.27 in the series on pLai RLuc reporter virus (read-out: Antiviral Serum Shift RLuc CCM, CCM (RPMI media, 10% FBS, 1% P/S), 72-h incubation).
